Test results: PubChem BioAssay (NCI)
Several values for one entry are separate records, joined by “and”; a condition that tells them apart may be missing. Equal entries are not always repeated.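 Growth conditions: 96-well plates. Treatment: test compound, 48 hours, 5 concentrations. Analysis: linear interpolation between bracketing concentrations; unreached endpoints set to highest concentration. Here, GI50 denotes the concentration required for 50% inhibition of growth. The concentration for full growth arrest is given as TGI.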

Key:
Experiment in all cases: growth of human tumour cells (NCI), 48 h
COLO 205 colon = tested on: COLO 205 colon
CCRF-CEM leukemia = tested on: CCRF-CEM leukemia
HT29 colon = tested on: HT29 colon
IGROV1 ovarian = tested on: IGROV1 ovarian
NCI-H522 lung = tested on: NCI-H522 lung
MDA-MB-435 = tested on: MDA-MB-435
A498 renal = tested on: A498 renal
MCF7 breast = tested on: MCF7 breast

Row | Structure (SMILES) | GI50 (COLO 205 colon) | TGI (COLO 205 colon) | GI50 (CCRF-CEM leukemia) | TGI (CCRF-CEM leukemia) | GI50 (HT29 colon) | TGI (HT29 colon) | GI50 (IGROV1 ovarian) | TGI (IGROV1 ovarian) | GI50 (NCI-H522 lung) | TGI (NCI-H522 lung) | GI50 (MDA-MB-435) | TGI (MDA-MB-435) | GI50 (A498 renal) | TGI (A498 renal) | GI50 (MCF7 breast) | TGI (MCF7 breast)
1 | CCCCCCN1CCN(Cc2ccc(N(CC)CC)cc2)C(=O)C1=O | 0.759 µM | 10.1 µM | 2.69 µM | > 100 µM | 3.34 µM | > 100 µM | 6.63 µM | > 100 µM | 2.03 µM | 5.14 µM | 0.448 µM | 2.38 µM | 0.973 µM | 5.77 µM | 0.58 µM | 62.2 µM
2 | O=[N+]([O-])/C=C/c1ccc([N+](=O)[O-])cc1 | 1.97 µM | 4.22 µM | 3.63 µM | 84.4 µM | 2.07 µM | 5 µM | 2.06 µM | 5.29 µM | 3.83 µM | 15 µM | 1.74 µM | 3.99 µM | 2.98 µM | 10.1 µM | 1.84 µM | 5.29 µM
3 | C=C1C(=O)O[C@H]2C[C@@H]1CCC1(C)OC1CC/C(C)=C/CC[C@H]2C (some centres undefined) | 15.6 µM | 36.2 µM | – | – | 20.1 µM | 34.3 µM | 35 µM | 96.8 µM | 37.9 µM | > 100 µM | 18.9 µM | 34.6 µM | 17.7 µM | 33.6 µM | 18 µM | 36.6 µM
4 | C[C@@H]1COC(Nc2ccc3ncnc(Nc4ccc(OCc5nccs5)c(Cl)c4)c3c2)=N1 | 3.79 µM and 4.86 µM | > 10 µM and 17.1 µM | 3.55 µM and 3.46 µM | > 80.9 µM | 5.04 µM and 4.33 µM | > 10 µM and 17.8 µM | 1.09 µM and 0.544 µM | > 10 µM and 8.03 µM | 0.237 µM and 0.49 µM | > 10 µM and 4.65 µM | 6.2 µM and 6.24 µM | > 10 µM and 23.1 µM | 3.02 µM and 0.342 µM | > 10 µM and 6.25 µM | 4.97 µM and 5.73 µM | > 10 µM and 24 µM
5 | COc1cc2c3c(n(CCCNCCNCCCN)c(=O)c2cc1OC)-c1cc2c(cc1C3=O)OCO2 | 3.57 µM | 17.9 µM | – | – | 2.03 µM | 10.2 µM | 1.04 µM | 7.09 µM | 0.575 µM | 2.86 µM | 3.45 µM | 15.6 µM | – | – | 2.14 µM | > 100 µM
6 | COc1ccc(C2=C(c3cc(OC)c(OC)c(OC)c3)C(=O)OC2)cc1OC | 0.295 µM | 0.941 µM | < 0.01 µM | > 100 µM | 0.0256 µM | > 24.3 µM | 0.353 µM | > 55.6 µM | < 0.0189 µM | > 46.7 µM | < 0.01 µM | 0.0109 µM | 0.134 µM | 21.3 µM | < 0.0187 µM | > 100 µM
7 | NC1=NC(c2ccc(F)cc2)C2=C(N1)c1ccc3ccccc3c1OCC2 (centres undefined) | – | – | – | – | 4.96 µM | > 100 µM | > 100 µM | > 100 µM | > 100 µM | > 100 µM | – | – | 10.8 µM | > 100 µM | 4.69 µM | > 100 µM
8 | O=C1C=CC(=O)c2c1ncc1c2nc2sccn21 | 40.3 µM | > 100 µM | 2.07 µM | 6.62 µM | 37.6 µM | > 100 µM | 22.7 µM | 56.6 µM | 16 µM | 61.2 µM | 16.3 µM | 39.2 µM | – | – | 20.6 µM | > 100 µM
9 | COc1cc2c(cc1OC)-c1c(c3ccc([N+](=O)[O-])cc3c(=O)n1CCCN)C2=O | 1.83 µM | 8.85 µM | 0.495 µM | 2.4 µM | 0.531 µM | 1.12 µM | 0.306 µM | 8.29 µM | 0.0615 µM | 4.22 µM | 7.23 µM | 15.4 µM | 6.27 µM | 13.2 µM | 0.0545 µM | 7.09 µM
10 | CNCCOC(=O)/C=C1/CCC2C(C(O)CC3C(C)(C(=O)OC)CCCC23C)C1C (centres undefined) | 0.0348 µM | 0.0958 µM | 0.0138 µM | 0.0518 µM | 0.0231 µM | 0.0473 µM | 0.0305 µM | 0.0971 µM | < 0.01 µM | 0.0203 µM | 0.0289 µM | 0.0881 µM | 0.0161 µM | 0.0585 µM | 0.0213 µM | 0.071 µM
11 | Cc1ccc(F)cc1NC(=O)c1cc(Cl)ccc1Nc1ccccc1 | > 100 µM | > 100 µM | 20.2 µM | > 100 µM | > 100 µM | > 100 µM | > 100 µM | > 100 µM | > 100 µM | > 100 µM | > 100 µM | > 100 µM | – | – | > 100 µM | > 100 µM
12 | COc1cc2c(cc1OCCCN1CCN(c3cc(=O)oc4c(C)c(OC)ccc34)CC1)N=C[C@@H]1CCCN1C2=O | 0.268 µM | 1.43 µM | 0.122 µM | 1.36 µM | 1.16 µM | – | 1.57 µM | 6.05 µM | 0.126 µM | 1.93 µM | 1.59 µM | 3.79 µM | 2.02 µM | 3.96 µM | 0.787 µM | > 39.7 µM
13 | NC(N)=N/N=C/c1c(-c2ccc(Cl)c([N+](=O)[O-])c2)nc2ccccn12 | – | – | – | – | 1.42 µM | > 100 µM | 1.36 µM | 2.85 µM | – | – | – | – | 5.82 µM | 14.4 µM | – | –
14 | COc1ccc(/C=C\c2cc(OC)c(OC)c(OC)c2)cc1OCC(=O)Nc1nc2ccc(OC(F)(F)F)cc2s1 | 43.3 µM | > 100 µM | 4.12 µM | > 100 µM | > 100 µM | > 100 µM | 5.64 µM | > 100 µM | 3.16 µM | 21.7 µM | 1.93 µM | 5.14 µM | 3.61 µM | > 100 µM | 2.89 µM | > 100 µM
15 | Cc1ccccc1C(C(=O)NC1CCCCC1)N(C(=O)Cn1ccnc1C)c1cccc(F)c1 (centres undefined) | > 92.1 µM | > 100 µM | > 100 µM | > 100 µM | > 100 µM | > 100 µM | > 77 µM | > 100 µM | > 100 µM | > 100 µM | > 100 µM | > 100 µM | 27.1 µM | > 83.9 µM | > 74 µM | > 100 µM
16 | O=C(/C=C\c1ccc2ccccc2n1)c1cc(Cl)ccc1O | 5.74 µM | 18.4 µM | 2.16 µM | 8.29 µM | 4.2 µM | 31.5 µM | 5.21 µM | 22.6 µM | 2.88 µM | 16 µM | 3.66 µM | 21.7 µM | 28.9 µM | > 100 µM | 6.48 µM | > 100 µM
17 | CCC(=O)c1ccc2c(c1)N(CCCN1CCN(CCO)CC1)c1ccccc1S2 | 12.1 µM | 26.5 µM | 9.67 µM | 27.9 µM | 3.98 µM | 14.7 µM | 12.4 µM | 29.1 µM | 15.9 µM | 32.4 µM | 3.24 µM | 12.3 µM | 8.33 µM | 22.3 µM | 12.4 µM | 26.9 µM
18 | COc1ccc2[nH]cc(-c3nc(-c4c[nH]c5ccncc45)cs3)c2c1 | – | – | 2.45 µM | 7.18 µM | 2.23 µM | 4.87 µM | 1.93 µM | 3.9 µM | 1.81 µM | 3.65 µM | 1.68 µM | 3.13 µM | 4.91 µM | 16.1 µM | 1.66 µM | 3.4 µM
19 | Cc1cc2nc3c4cccc(O)c4n(CCN(C)C)c3nc2cc1C | 3.89 µM | 19.4 µM | 1.57 µM | 6.25 µM | 2.81 µM | 20 µM | 1.32 µM | 10.8 µM | 2.15 µM | 6.49 µM | 1.65 µM | 3.12 µM | 2.09 µM | 9.08 µM | 1.36 µM | 5.08 µM
20 | N/C(=N\c1nc2ccccc2s1)NC(=O)Nc1cccc2ccccc12 | – | – | 0.36 µM | > 100 µM | 0.19 µM | > 100 µM | 0.371 µM | > 100 µM | 0.0775 µM | – | 0.0321 µM | 0.143 µM | 0.347 µM | 3.72 µM | 0.209 µM | > 100 µM
21 | COc1ccc(-c2nc3sc4c(c3c(=O)[nH]2)CCCC4)c2ccccc12 | – | – | – | > 100 µM | – | – | – | > 100 µM | – | 0.0179 µM | – | – | – | 0.765 µM and 0.0871 µM | – | > 100 µM
22 | Cc1c(O)c(=O)ccn1CCO | – | > 100 µM | – | > 100 µM | – | > 100 µM | – | – | – | > 100 µM | – | – | – | > 100 µM | – | –
23 | Cc1ccc2[nH]c(C(=O)NN3C(=O)C(C)SC34CCCCC4C)c(-c3ccccc3)c2c1 (centres undefined) | 18 µM | 38.9 µM | 21.7 µM | 73 µM | 15.5 µM | 39.3 µM | – | – | 2.4 µM | 16.7 µM | 16.4 µM | 33.1 µM | 15 µM | 32 µM | 23.1 µM | > 100 µM
24 | COc1cc(OC)cc(-c2cncn2-c2ccc(-c3nc4cc(OC)cc(OC)c4s3)cc2)c1 | – | – | – | – | – | – | 5.07 µM | > 100 µM | 2.49 µM | > 100 µM | – | – | 3.15 µM | > 100 µM | 3.82 µM | > 100 µM
25 | COc1ccc(-c2ccccc2)cc1-c1c(Nc2cc(Cl)cc(Cl)c2O)c(=O)c1=O | 1.9 µM | 44.8 µM | 1.64 µM | > 50 µM | 1.92 µM | > 50 µM | 1.76 µM | > 50 µM | 1.41 µM | > 50 µM | – | – | 0.726 µM | 2.2 µM | 1.3 µM | > 50 µM
